The record followed here is patent publication US9849174B2, “Methods and compositions related to immunogenic fibrils” (The Board of Regents of the University of Texas System, priority 2009, dated 2017).

In series [1] the test system is OT-II cells. Briefly: In vitro activation assay of OT-II lymphocytes on nanofiber-coated wells, cytokines by flow cytometry. It counts as cell-based, mice. The following applies: 6 h stimulation; for Cytokine (IFN-γ, IL-2) production by OT-II cells: nanofibers without OVA. From the text: OVA-KFE8D Nanofibers Induce Robust CD4 T Helper Cell Responses. OVA (ISQAVHAAHAEINEAGR) (SEQ ID NO: 26), is a well-characterized CD4+ T helper epitope, a portion of which is also recognized by B cells (ISQAVHAAHA) (SEQ ID NO: 58) (Robertson, et al., 2000). Therefore, immunization with OVA leads to both CD4+ T cell activation and antibody production and studies have shown that antibody responses against OVA are CD4+ T celldependent (Rudra, et al., 2012; Robertson, et al., 2000). To assess whether the enantiomeric nature of nanofibers that contributed to enhanced antibody responses also leads to differential CD4+ T helper cell functionality, we utilized transgenic mice (OT-II mice) that have CD4+ T cells (OT-II cells) whose receptors recognize OVA in the context of MHC-class II molecules.30 CD4+ T cell responses were assessed using an in vitro activation assay. Whole lymphocyte extracts (containing antigen-presenting cell, B cell, and CD4+ T cell populations) from OT-II mice were cultured in wells coated with OVA-bearing enantiomers, and 6 h later the production of cytokines IFN-γ and IL-2 were measured using flow cytometry. Lymphocytes stimulated with PBS or free OVA peptide were used as negative and positive controls, respectively.

In series [2] the test system is antigen-specific T cells in the draining lymph nodes. Briefly: CD8 T cell responses after footpad immunization, tetramer staining of draining lymph nodes. The class given is in vivo, mice.
Series [3] relates to C57BL/6 mice. As to the kind of experiment: Subcutaneous immunization with OVA-KFE8 enantiomers, antibody responses by ELISA (Example 4). The following applies: for Dominant antibody isotype: plates coated with free OVA peptide; for Total IgG antibody response: s.c., boost day 28. It counts as in vivo.
Series [4] concerns CFSE-labeled OT-II cells. As to the kind of experiment: Footpad adoptive transfer of CFSE-labeled OT-II cells one week after immunization. The class given is in vivo, mice. The following applies: cells transferred a week after footpad immunization, lymph nodes 24 h later. The source says: OVA-KFE8D Nanofibers Prolong Antigen Presentation at the Immunization Site. Previous studies from our lab have shown that peptide nanofiber vaccines (all L-amino acids) are cleared from the immunization site as early as 10 days after vaccination compared to depot forming adjuvants (Chesson, et al., 2014). To investigate whether the reduced proteolytic susceptibility of D-amino acid peptides prolongs antigen-presentation at the immunization site, we used adoptive transfer experiments where mice were injected at the immunization site with CFSElabeled OT-II cells (OVA-specific CD4+ T cells) and measured proliferation of the OT-II cells (in response to existing antigen) via the dilution of the CFSE label using flow cytometry. For these studies, immunizations and adoptive transfers were done in the footpads to maximize antigen depot-OT-II CD4+ T cell interaction and easy collection of draining lymph nodes. Mice were immunized with OVA-KFE8L or OVA-KFE8D nanofibers and a week later CFSE-labeled OT-II cells were transferred at the vaccination site. Twenty-four hours later, mice were sacrificed and draining lymph nodes were extracted.

The subject of series [5] is C57BL/6 mice. Briefly: Subcutaneous immunization of mice, serum antibody titers and isotypes by ELISA (Example 1). It counts as in vivo. As for the experimental part:
To investigate how fibrillization affected the immunogenicity of OVA, C57BL/6 mice were immunized subcutaneously with the different peptides and boosted with additional peptide at 28 days (see methods). Serum was collected seven days after the boost, and levels of various immunoglobulins were measured.
Immunizations. […] Stock solutions were then diluted in sterile, endotoxin-free PBS to working concentrations. […] CFA-adjuvanted groups received the same volume and total peptide dose, prepared by emulsifying peptide/PBS solutions 1:1 in CFA. […] CFA groups were boosted in incomplete Freund's adjuvant (IFA). Mice receiving mixtures of Q11 and OVA received 100 nmol of each peptide in the first injection and 50 nmol of each in the second. Seven days after the boost, the mice were sacrificed, and sera and spleens were harvested.
Determination of antibody titers. High-binding ELISA plates (eBioscience) were coated with either 20 μg/mL peptide in PBS or PBS alone (for uncoated background subtraction) overnight at 4° C. […] To determine titers for each antiserum, background absorbance values from uncoated wells were subtracted from coated wells, and net absorbances were compared to cutoff values. The cutoff consisted of the mean plus three times the standard deviation of the negative control group (mice receiving OVA without adjuvant) for each corresponding dilution. Any sample dilutions having absorbances above this cutoff value were considered positive readings. The titer was considered as the highest dilution for which it and all lower dilutions had positive readings. If no positive dilutions were present the titer was considered to be 10^2. […] Antibody isotypes were analyzed similarly using a mouse monoclonal antibody kit containing goat anti-mouse IgG1, IgG2a, IgG2b, IgG3, and IgM (Sigma).
(In general: An ELISA detects its analyte on a solid surface through an enzyme-linked reagent.)

Details of series [6]: species or system mice. The following applies: mouse, in vivo. The source says: Peptide assemblies (stained brown and indicated by arrows) were found at the cortex of the lymph nodes by wk 1 and continued to persist up to wk 6. […] Although the mechanism of trafficking is unknown, co-staining for macrophages, dendritic cells, or B cells might provide further insights into the uptake and processing of these peptides in vivo.
Immunohistochemistry Freshly dissected skeletal muscle and inguinal lymph nodes were fixed overnight with 4% formaldehyde in phosphate-buffered saline (pH 7.2) and the tissue was processed and embedded in paraffin at the Human Tissue Resource Center (University of Chicago). The paraffin blocks were cut on a microtome (Leica, USA) into 4 μm thick sections and were deparaffinized with xylene and rehydrated with gradient ethanol. The sections were boiled in 10 mM sodium citrate solution (pH 6.0) for 10 min to retrieve the antigens and blocked with 5% BSA in PBS for 1 hr. The sections were then incubated with Horseradish Peroxidase Avidin D (Vector Laboratories, CA) for 3 hrs, and the biotin was visualized using a peroxidase substrate diaminobenzidine kit (Vector Laboratories, CA). The sections were also counterstained with Mayer's hematoxylin solution (Sigma-Aldrich, USA) for 10 mins. The slides were dehydrated with gradient ethanol and xylene and mounted with Permount Mounting Medium (Fisher Scientific, PA). Images were acquired using a Zeiss Axioskop at the Microscopy Core Facility (University of Chicago).

For series [7] the following is noted: ranges: high and low values among three batches for each peptide.
Protocol: Endotoxin levels of all formulations were tested using a Limulus Amebocyte Lystae (LAL) chromogenic end point assay (Lonza, USA).
To account for batch-to-batch variability three different sets of peptides were synthesized for immunizing mice.
Series [8] has as its system KO mice lacking both the αβ and γδ receptors. Briefly: Immunization of T cell receptor KO mice, antibody production. It counts as in vivo. The conditions noted are these: over 6 wks. The source says:
To confirm the necessity of T cells, KO mice lacking both the αβ and γδ receptors for CD4^+ T cells were immunized with OVA-Q11 along with wild type controls. […] The wild type control mice responded as expected. […] To ensure that the KO mice are capable of eliciting immune responses, they were immunized with a T-independent antigen, NP-Ficoll. […] This finding might not be surprising because OVA is a strong MHC class II peptide, containing both B and T cell determinants.

For series [9], the system named is C57BL/6 mice. As to the kind of experiment: Long-term serum antibody ELISA after immunization with Q11-linked peptides (Example 2). The conditions noted are these: boost at wk 4.
Protocol: The dose dependence and longevity of the antibody response to OVA-Q11 was further investigated and antibody responses against the malarial peptide epitope (NANP)3 coupled to Q11 were also characterized. Mice were immunized with two different doses of OVA-Q11 (100 nmol and 50 nmol), or 100 nmol of (NANP)3-Q11 and boosted with half the dose at wk 4. Mice were bled on a weekly basis up to wk 6, once at wk 8, and once every four weeks thereafter.
Animals and Immunizations Peptides were dissolved in sterile water (8 mM stock), incubated overnight at 4° C., and diluted in sterile PBS (2 mM working concentration) prior to immunizations. For the malaria peptide, (NANP)3-Q11, the formulations were incubated in PBS overnight to ensure complete fibril formation. […] Female C57BL/6 mice (6-8 weeks old, Taconic Farms, IN) were immunized subcutaneously with two 50 μL injections in the back, with each injection containing 100 nmol of peptide. […]
Determination of Antibody Production ELISA plates (eBioscience) were coated with 20 μg/mL of peptide or 0.5 μg/mL of whole protein in PBS overnight at 4° C. […] The reaction was stopped using 50 μL of 1 M phosphoric acid and 100 μL of the solution was transferred to fresh plates and absorbance values were read at 450 nm. Absorbance values of PBS (no antigen) coated wells were subtracted to account for background. […]

Entries after “also recorded” stand apart in the source; their conditions may differ. Square brackets hold non-standard residues; d marks the D form. Ends that are not written are not given here.

Take `CC(=O)N[C@H](Cc1ccccc1)C(=O)N[C@H](CCCCN)C(=O)N[C@H](Cc1ccccc1)C(=O)N[C@H](CCC(=O)O)C(=O)N[C@H](Cc1ccccc1)C(=O)N[C@H](CCCCN)C(=O)N[C@H](Cc1ccccc1)C(=O)N[C@H](CCC(=O)O)C(N)=O` [KFE8(D), Ac-^DF^DK^DF^DE^DF^DK^DF^DE-Am]: the “Cytokine (IFN-γ, IL-2) production by OT-II cells” value in [1] is recorded as “no cytokine production”.
Still for that read-out and setting: the result for `CC(=O)N[C@@H](Cc1ccccc1)C(=O)N[C@@H](CCCCN)C(=O)N[C@@H](Cc1ccccc1)C(=O)N[C@@H](CCC(=O)O)C(=O)N[C@@H](Cc1ccccc1)C(=O)N[C@@H](CCCCN)C(=O)N[C@@H](Cc1ccccc1)C(=O)N[C@@H](CCC(=O)O)C(N)=O` [KFE8(L), Ac-FKFEFKFE-Am] reads “no cytokine production”.
On to “H2N-FKFEFKFEGGAAYSIINFEKL-Am (H-FKFEFKFEGGAAYSIINFEKL-NH2; not fully specified (some residues)) [SIN-KFE8(L)]”, for which the “Memory CD8 T cell response: antigen-specific T cells in lymph nodes, compared with the enantiomer” value in series [2] (boost day 28, evaluated day 32) is recorded as “significantly higher numbers of antigen-specific T cells”. In addition, the “Effector and memory CD8+ T cell responses / tetramer+ CD8 T cells” value in [2] (mouse, in vivo) was “robust effector and memory CD8+ T cell responses; also recorded: higher numbers of tetramer+CD8 T cells”.
As for “H2N-ISQAVHAAHAEINEAGRSGSGFKFEFKFE-Am (H-ISQAVHAAHAEINEAGRSGSGFKFEFKFE-NH2; not fully specified (some residues)) [OVA-KFE8(L)]”, the Dominant antibody isotype entry in series [3] is recorded as “IgG1”. Also, in [1], the “IFN-γ production by OT-II cells compared to wells coated with PBS or bare nanofibers” value was “significantly higher levels” and the “IL-2 production by OT-II cells compared to wells coated with PBS or bare nanofibers” value was “significantly higher levels”. For the same compound, the “Transferred OT-II cells that had proliferated (shift in CFSE intensity)” value in [4] was “only background levels of proliferation”.
Regarding “H2N-ISQAVHAAHAEINEAGRSGSG^DF^DK^DF^DE^DF^DK^DF^DE-Am (H-ISQAVHAAHAEINEAGRSGSG[dF][dK][dF][dE][dF][dK][dF][dE]-NH2; SMILES CC[C@H](C)[C@H](N)C(=O)N[C@@H](CO)C(=O)N[C@@H](CCC(N)=O)C(=O)N[C@@H](C)C(=O)N[C@H](C(=O)N[C@@H](Cc1c[nH]cn1)C(=O)N[C@@H](C)C(=O)N[C@@H](C)C(=O)N[C@@H](Cc1c[nH]cn1)C(=O)N[C@@H](C)C(=O)N[C@@H](CCC(=O)O)C(=O)N[C@H](C(=O)N[C@@H](CC(N)=O)C(=O)N[C@@H](CCC(=O)O)C(=O)N[C@@H](C)C(=O)NCC(=O)N[C@@H](CCCNC(=N)N)C(=O)N[C@@H](CO)C(=O)NCC(=O)N[C@@H](CO)C(=O)NCC(=O)N[C@H](Cc1ccccc1)C(=O)N[C@H](CCCCN)C(=O)N[C@H](Cc1ccccc1)C(=O)N[C@H](CCC(=O)O)C(=O)N[C@H](Cc1ccccc1)C(=O)N[C@H](CCCCN)C(=O)N[C@H](Cc1ccccc1)C(=O)N[C@H](CCC(=O)O)C(N)=O)[C@@H](C)CC)C(C)C) [OVA-KFE8(D)]”, in series [3] (IgG2a, IgG2b, IgG3, IgM, IgA), the “Antibody isotype levels compared to OVA-KFE8(L)” value is given as “Significantly higher levels of all antibody isotypes”. Also, in series [3] (mouse, in vivo), the “Anti-OVA antibodies on plates coated with free OVA peptide compared to OVA-KFE8(L)” value was “higher levels of anti-OVA antibodies; also recorded: Significantly higher levels of antibodies”; the “IgG2a, IgM, and IgA production compared to OVA in ISA-720” value is on record as “significantly higher”; the “OVA-specific antibodies compared to OVA-KFE8(L), SGSG-KFE8 control wells subtracted” value is “significantly higher levels of OVA-specific antibodies”. In [3], the Dominant antibody isotype result is “IgG1” and the “Total IgG antibody response” value is recorded as “robust antibody responses”. For the same compound, the “Antibody levels compared to OVA-KFE8(L) nanofibers or OVA in ISA-720” value in [3] (series of serum dilutions) was “Significantly higher levels of total IgG”. In addition, the “Antibody levels pre-boost compared to OVA-KFE8(L)” value in series [3] (week 2 up to the boost at week 4) is given as “significantly higher levels of antibodies”. In series [1], the “Difference in IFN-γ and IL-2 production / CD4+ T cell activation between the enantiomers” value is reported as “no significant differences”; the “IFN-γ production by OT-II cells compared to wells coated with PBS or bare nanofibers” value is reported as “significantly higher levels”; the “IL-2 production by OT-II cells compared to wells coated with PBS or bare nanofibers” value is on record as “significantly higher levels”.
“H2N-^DF^DK^DF^DE^DF^DK^DF^DEGGAAYSIINFEKL-Am [SIN-KFE8(D)]”: the “Effector CD8 T cell response: antigen-specific T cells in draining lymph nodes, compared with the enantiomer” value in series [2] (footpad, boost day 5, evaluated day 8) is reported as “significantly lower numbers of antigen-specific T cells”.
Turning to “H-ISQAVHAAHAEINEAGR-OH [OVA, H2N-ISQAVHAAHAEINEAGR-OH, reference compound]”, the “Total IgG response” value in series [5] (peptide in PBS without added adjuvant, s.c., boost day 28, serum 7 days after boost) is “did not raise detectable IgG; also recorded: did not elicit a response”. In series [5] (without adjuvant, baseline level of detection), the IgG titer is reported as 10^2. In addition, in series [3], the “Total IgG antibody response” value is “did not raise any detectable IgG”.
Consider “ISQAVHAAHAEINEAGRSGSGQQKFQFQFEQQ-NH2 (C-terminus assumed) [O-Q11]”, for which, in [6], the “Localization of peptide assemblies” value is on record as “localized to the draining lymph nodes”, the “Persistence of peptide assemblies in lymph nodes” value is on record as at most 6 wk and the “Time at which peptide assemblies were found at the cortex of the lymph nodes” value is on record as at most 1 wk. The Endotoxin in series [7] is on record as 0.08-0.28 EU/mL.
For the compound “NANPNANPNANPSGSGQQKFQFQFEQQ [(NANP)3-Q11]”, the “Antibody production in T cell receptor KO mice” value in series [8] is “no antibody production”. Also, the “Spike in antibody levels after the boost” value in series [9] (100 nmol) is recorded as “no spike in antibody levels”. The “Time for which antibodies were detectable” value in [9] is given as “up to 28 wks”.
